# Experimental data from PubChem BioAssay (NCI).
#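 Step 1: Grow cells in 96-well plates. Step 2: Expose to compound for 48 hours at 5 concentrations. Step 3: Interpolate endpoints linearly; if unreached, use highest concentration. Here, GI50 denotes the concentration required for 50% inhibition of growth. TGI is the concentration that stops growth completely.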
# Tests used:
# Experiment in all cases: inhibition of tumour cell growth, NCI panel, 48 h
# A549 NSCLC = system: A549 NSCLC
# CCRF-CEM leukemia = system: CCRF-CEM leukemia
# HOP-62 NSCLC = system: HOP-62 NSCLC
# K-562 leukemia = system: K-562 leukemia
# MALME-3M melanoma = system: MALME-3M melanoma
# MOLT-4 leukemia = system: MOLT-4 leukemia
# NCI-H522 lung = system: NCI-H522 lung
# SF-268 CNS = system: SF-268 CNS
# SK-MEL-2 melanoma = system: SK-MEL-2 melanoma
# TK-10 renal = system: TK-10 renal
SMILES,TGI (A549 NSCLC),TGI (CCRF-CEM leukemia),TGI (HOP-62 NSCLC),TGI (K-562 leukemia),TGI (MALME-3M melanoma),TGI (MOLT-4 leukemia),TGI (NCI-H522 lung),TGI (SF-268 CNS),TGI (SK-MEL-2 melanoma),TGI (TK-10 renal),GI50 (A549 NSCLC),GI50 (CCRF-CEM leukemia),GI50 (HOP-62 NSCLC),GI50 (K-562 leukemia),GI50 (MALME-3M melanoma),GI50 (MOLT-4 leukemia),GI50 (NCI-H522 lung),GI50 (SF-268 CNS),GI50 (SK-MEL-2 melanoma),GI50 (TK-10 renal)
NS(=O)(=O)c1ccc(NC2=CC(=O)C(=O)c3ccccc32)cc1,> 100 µM,> 100 µM,> 100 µM,> 100 µM,> 100 µM,> 100 µM,> 100 µM,> 100 µM,> 100 µM,> 100 µM,–,–,–,–,–,–,–,–,–,–
N#Cc1c2c(c(N=P(c3ccccc3)(c3ccccc3)c3ccccc3)n3c1nc1ccccc13)CCCC2,> 100 µM,57.7 µM,71.5 µM,38.2 µM,> 100 µM,64.2 µM,41.8 µM,> 100 µM,70.4 µM,–,–,–,–,–,–,–,–,–,–,–
CN(Cc1cc(Br)cc(Br)c1O)Cc1cc(Br)cc(Br)c1O,15.4 µM,> 100 µM,18.1 µM,20 µM,22 µM,36.3 µM,7.14 µM,21.1 µM,11.8 µM,20.4 µM,2.19 µM,1.31 µM,1.74 µM,0.603 µM,3.51 µM,3.31 µM,1.73 µM,2.87 µM,2.87 µM,4.26 µM
C[C@H](Nc1ncnc2nc[nH]c12)c1cc2ccc(F)cc2nc1-c1ccccn1,> 100 µM,> 100 µM,> 100 µM,> 100 µM,> 100 µM,> 100 µM,> 100 µM,> 100 µM,> 100 µM,> 100 µM,> 100 µM,> 70.2 µM,> 57.8 µM,> 100 µM,> 87.8 µM,52.2 µM,> 54.1 µM,> 100 µM,> 100 µM,47.4 µM
Cc1ccc2ncnc(N(CC(C)C)CC(C)C)c2c1,25.3 µM,41.7 µM,31.2 µM,21.7 µM,31.7 µM,38.4 µM,> 100 µM,37.7 µM,> 100 µM,37.5 µM,9.43 µM,6.55 µM,15.5 µM,3.69 µM,16.8 µM,7.6 µM,18.9 µM,16.2 µM,61.1 µM,19.4 µM
CC(=O)c1cc(C(=O)c2ccc3c(c2)Sc2ccccc2N3)c2c(C)cc(C)cn12,> 55.6 µM,> 100 µM,> 63 µM,> 100 µM,> 100 µM,> 100 µM,1.08 µM,> 46.3 µM,> 100 µM,> 100 µM,0.337 µM,0.277 µM,0.394 µM,0.222 µM,5.73 µM,0.465 µM,0.16 µM,0.533 µM,0.317 µM,1.31 µM
CC1SC2=NC3=C(c4ccccc4C3=O)C(c3ccc(Cl)cc3)N2C1=O (centres undefined),> 100 µM,> 100 µM,> 100 µM,> 100 µM,> 100 µM,> 100 µM,87.8 µM,> 100 µM,> 100 µM,> 100 µM,–,–,–,–,–,–,–,–,–,–
O=[N+]([O-])c1ccccc1N/N=C\c1c[nH]c2ccccc12,> 100 µM,> 100 µM,31.1 µM,> 100 µM,> 87.1 µM,> 100 µM,> 100 µM,> 100 µM,> 100 µM,> 72.6 µM,20.2 µM,5.1 µM,13.8 µM,4.53 µM,28.8 µM,4.42 µM,11.6 µM,9.04 µM,26.4 µM,15 µM
CC(C)(C)C(=O)OCOP(=O)(OCOC(=O)C(C)(C)C)C1CC(O)N(O)C1=O (centres undefined),> 100 µM,14.3 µM,26.8 µM,> 100 µM,> 100 µM,> 100 µM,14.4 µM,> 100 µM,92.1 µM,> 100 µM,30.7 µM,0.777 µM,5.28 µM,3.66 µM,2.82 µM,3.91 µM,2.95 µM,3.54 µM,5.14 µM,20.2 µM
Cc1ccc(C(SCC(N)C(=O)O)(c2ccc(C)cc2)c2ccc(C)cc2)cc1 (centres undefined),16.8 µM,55.4 µM,22.3 µM,12.3 µM,26 µM,20.2 µM,16.7 µM,19.5 µM,20.5 µM,22.6 µM,2.62 µM,3.08 µM,6.52 µM,2.96 µM,11.6 µM,3.81 µM,1.01 µM,1.89 µM,2.72 µM,8.31 µM
Cn1cc(C2=C(c3cn(C)c4c([N+](=O)[O-])cccc34)C(=O)NC2=O)c2ccccc21,> 25 µM,> 25 µM,> 25 µM,> 25 µM,> 25 µM,> 25 µM,> 25 µM,> 25 µM,> 25 µM,> 25 µM,> 25 µM,> 25 µM,> 25 µM,> 25 µM,> 25 µM,> 25 µM,> 25 µM,> 25 µM,> 25 µM,> 25 µM
Nc1nc(OCc2cc(Br)cs2)c2[nH]cnc2n1,> 100 µM,> 100 µM,> 100 µM,> 100 µM,97.5 µM,> 100 µM,> 100 µM,> 100 µM,81.3 µM,62.9 µM,32.9 µM,37.5 µM,31.4 µM,29.7 µM,17.6 µM,28.5 µM,26.8 µM,32.3 µM,28.8 µM,10.2 µM
Cc1ccccc1-n1ncc(C(=O)c2ccccc2)c1N,> 25 µM,> 25 µM,> 25 µM,> 25 µM,> 25 µM,> 25 µM,> 25 µM,> 25 µM,> 25 µM,> 25 µM,> 25 µM,> 25 µM,> 25 µM,> 25 µM,> 25 µM,> 25 µM,> 25 µM,> 25 µM,> 25 µM,> 25 µM
